Measured values from PMC3844542 (Anesthesia and analgesia, 2013).
pIC50: −log10 of the molar value.

How the values were obtained:
[1] = molecular target: T1, LFA-1 αL I domain (wild-type, low-affinity conformer) (Homo sapiens, UniProt P20701); assay: 1-aminoanthracene fluorescence displacement assay; type: binding
T1 sequence (P20701 153-332): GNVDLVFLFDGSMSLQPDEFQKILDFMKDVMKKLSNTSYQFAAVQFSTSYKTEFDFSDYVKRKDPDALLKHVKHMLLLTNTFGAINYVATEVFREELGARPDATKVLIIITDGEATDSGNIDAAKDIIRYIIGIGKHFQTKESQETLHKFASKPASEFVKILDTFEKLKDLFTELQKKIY

[2] = molecular target: leukocyte function–associated antigen-1 (LFA-1) (Homo sapiens, UniProt P20701); assay: ELISA-type ICAM-1–LFA-1 binding assay with purified LFA-1; type: biochemical
Sequence of leukocyte function–associated antigen-1 (LFA-1) (P20701 26-1090 limits assumed): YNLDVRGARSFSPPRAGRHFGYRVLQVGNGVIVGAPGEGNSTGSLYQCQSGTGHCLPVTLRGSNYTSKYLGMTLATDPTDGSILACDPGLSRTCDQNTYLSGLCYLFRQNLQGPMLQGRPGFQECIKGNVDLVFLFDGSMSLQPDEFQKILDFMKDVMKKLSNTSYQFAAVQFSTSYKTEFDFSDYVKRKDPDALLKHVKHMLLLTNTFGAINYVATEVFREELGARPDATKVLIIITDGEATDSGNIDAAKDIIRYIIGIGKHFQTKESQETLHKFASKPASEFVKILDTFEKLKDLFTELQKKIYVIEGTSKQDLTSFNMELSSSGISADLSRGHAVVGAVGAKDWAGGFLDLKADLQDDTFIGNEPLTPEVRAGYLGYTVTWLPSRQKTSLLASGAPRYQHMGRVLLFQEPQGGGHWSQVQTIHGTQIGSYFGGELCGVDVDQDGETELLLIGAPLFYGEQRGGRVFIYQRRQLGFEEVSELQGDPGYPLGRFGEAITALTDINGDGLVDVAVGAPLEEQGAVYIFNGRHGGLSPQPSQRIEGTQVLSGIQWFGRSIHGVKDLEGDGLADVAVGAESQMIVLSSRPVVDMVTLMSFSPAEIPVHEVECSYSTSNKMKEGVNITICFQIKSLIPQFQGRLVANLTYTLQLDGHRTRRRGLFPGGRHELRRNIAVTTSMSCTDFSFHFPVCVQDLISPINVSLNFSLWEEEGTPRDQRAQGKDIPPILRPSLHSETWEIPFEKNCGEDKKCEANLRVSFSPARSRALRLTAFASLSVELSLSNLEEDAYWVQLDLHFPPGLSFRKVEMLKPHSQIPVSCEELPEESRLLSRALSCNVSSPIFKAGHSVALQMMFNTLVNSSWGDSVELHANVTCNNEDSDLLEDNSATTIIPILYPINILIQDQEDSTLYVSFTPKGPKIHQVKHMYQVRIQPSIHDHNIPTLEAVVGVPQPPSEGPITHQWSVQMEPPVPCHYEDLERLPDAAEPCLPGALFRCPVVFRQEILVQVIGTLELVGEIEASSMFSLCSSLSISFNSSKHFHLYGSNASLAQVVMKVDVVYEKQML
Sequence of leukocyte function–associated antigen-1 (LFA-1) (P05107 23-769 partner): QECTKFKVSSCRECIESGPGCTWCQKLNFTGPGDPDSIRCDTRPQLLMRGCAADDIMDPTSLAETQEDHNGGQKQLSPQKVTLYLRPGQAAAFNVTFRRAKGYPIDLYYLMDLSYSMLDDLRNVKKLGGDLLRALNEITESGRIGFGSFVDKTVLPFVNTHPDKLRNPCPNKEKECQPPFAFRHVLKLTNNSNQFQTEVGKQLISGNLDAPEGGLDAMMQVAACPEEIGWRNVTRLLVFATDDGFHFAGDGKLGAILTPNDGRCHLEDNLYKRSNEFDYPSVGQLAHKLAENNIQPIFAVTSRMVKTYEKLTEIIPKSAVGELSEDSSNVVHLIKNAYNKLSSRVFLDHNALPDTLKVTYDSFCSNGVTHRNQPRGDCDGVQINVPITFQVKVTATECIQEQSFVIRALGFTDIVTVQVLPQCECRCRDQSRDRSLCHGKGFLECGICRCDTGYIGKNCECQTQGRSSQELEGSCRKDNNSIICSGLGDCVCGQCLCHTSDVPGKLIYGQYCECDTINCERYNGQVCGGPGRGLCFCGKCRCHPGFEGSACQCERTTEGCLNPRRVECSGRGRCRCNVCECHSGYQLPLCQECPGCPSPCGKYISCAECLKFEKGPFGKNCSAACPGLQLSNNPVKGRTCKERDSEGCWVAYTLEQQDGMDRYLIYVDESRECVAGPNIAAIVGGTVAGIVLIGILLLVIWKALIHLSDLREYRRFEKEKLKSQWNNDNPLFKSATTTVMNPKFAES

SMILES | pIC50 [1] | ELISA-type ICAM-1-LFA-1 binding assay with purified LFA-1 [2]
CC(C)c1cccc(C(C)C)c1O [propofol] | 4.04 | –
CC(C)(C)c1cccc(C(C)(C)C)c1O [DTBP, 2,6-di-tert-butylphenol] | – | Both propofol and DTBP inhibited ICAM-1–LFA-1 binding.
